From PubChem BioAssay AID248 (DTP/NCI, 2004)
Several values for one entry are separate records, joined by “and”; a condition that tells them apart may be missing. Equal entries are not always repeated. Inconclusive results and toxic doses are left out. Cut-off read from the data, not from the text of the source: active = T/C of 150% or more; inactive = T/C below 125%.

Tested on: L1210 leukemia ip in BDF1 mice, survival T/C
Assay: NCI In Vivo Anticancer Drug Screen. Data for tumor model L1210 Leukemia (intraperitoneal) in B6D2F1 (BDF1) mice
Settings: endpoint: mean survival time, higher = longer survival
Outline: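 Value reflects the ratio of survival in compound-treated mice to survival in vehicle-treated controls, with both groups carrying the same transplanted tumor.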

[1] = dose: 100.0 mg/kg/injection, schedule: Q01DX001 (ip), vehicle: saline
[2] = dose: 200.0 mg/kg/injection, schedule: Q01DX001 (ip), vehicle: saline
[3] = dose: 400.0 mg/kg/injection, schedule: Q01DX001 (ip), vehicle: saline
[4] = dose: 50.0 mg/kg/injection, schedule: Q01DX009 (ip), vehicle: saline with Tween-80
[5] = dose: 100.0 mg/kg/injection, schedule: Q01DX009 (ip), vehicle: saline with Tween-80
[6] = dose: 100.0 mg/kg/injection, schedule: Q04DX002 (ip), vehicle: Klucel (hydroxypropylcellulose) (HPC)
[7] = dose: 200.0 mg/kg/injection, schedule: Q04DX002 (ip), vehicle: Klucel (hydroxypropylcellulose) (HPC)
[8] = dose: 200.0 mg/kg/injection, schedule: Q01DX009 (ip), vehicle: saline with Tween-80
[9] = dose: 100.0 mg/kg/injection, schedule: Q01DX009 (ip), vehicle: saline
[10] = dose: 200.0 mg/kg/injection, schedule: Q01DX009 (ip), vehicle: saline
[11] = dose: 100.0 mg/kg/injection, schedule: Q01DX009 (ip), vehicle: Klucel (hydroxypropylcellulose) (HPC)
[12] = dose: 100.0 mg/kg/injection, schedule: Q04DX003 (ip), vehicle: Klucel (hydroxypropylcellulose) (HPC)
[13] = dose: 200.0 mg/kg/injection, schedule: Q01DX009 (ip), vehicle: Klucel (hydroxypropylcellulose) (HPC)
[14] = dose: 200.0 mg/kg/injection, schedule: Q04DX003 (ip), vehicle: Klucel (hydroxypropylcellulose) (HPC)
[15] = dose: 400.0 mg/kg/injection, schedule: Q01DX009 (ip), vehicle: Klucel (hydroxypropylcellulose) (HPC)
[16] = dose: 400.0 mg/kg/injection, schedule: Q04DX003 (ip), vehicle: Klucel (hydroxypropylcellulose) (HPC)
[17] = dose: 100.0 mg/kg/injection, schedule: Q04DX003 (ip), vehicle: saline
[18] = dose: 200.0 mg/kg/injection, schedule: Q04DX003 (ip), vehicle: saline
[19] = dose: 100.0 mg/kg/injection, schedule: Q01DX001 (ip), vehicle: saline with Tween-80
[20] = dose: 200.0 mg/kg/injection, schedule: Q01DX001 (ip), vehicle: saline with Tween-80
[21] = dose: 400.0 mg/kg/injection, schedule: Q01DX001 (ip), vehicle: saline with Tween-80

Measured: T/C

Cc1cc(OCCCC(=O)O)ccc1Cl
inactive: dose: 50.0 mg/kg/injection, schedule: Q01DX001 (ip), vehicle: saline 104 % of control | [1] 104 % of control | [2] 102 % of control | [3] 96 % of control

COc1ccc(NC(=O)Nc2ccc(F)c([N+](=O)[O-])c2)c(Cl)c1
inactive: dose: 25.0 mg/kg/injection, schedule: Q01DX009 (ip), vehicle: saline with Tween-80 95 % of control | [4] 100 % of control | [5] 96 % of control

NC(=O)C(Cl)CCl (stereo unspecified)
inactive: dose: 50.0 mg/kg/injection, schedule: Q04DX002 (ip), vehicle: Klucel (hydroxypropylcellulose) (HPC) 104 % of control | [6] 101 % of control | [7] 104 % of control

O=C(NNc1cccc(Cl)c1)C(O)C(O)C(O)C(O)CO (stereo unspecified)
inactive: [4] 107 % of control | [5] 98 % of control | [8] 115 % of control

O=[N+]([O-])/C=C/c1ccc(F)cc1
inactive: dose: 75.0 mg/kg/injection, schedule: Q01DX001 (ip), vehicle: alcohol 100 % of control

O=[N+]([O-])c1ccc(/C=C/c2ccc(OCc3ccccc3)cc2)cc1Cl
inactive: [6] 96 % of control | [7] 96 % of control | dose: 400.0 mg/kg/injection, schedule: Q04DX002 (ip), vehicle: Klucel (hydroxypropylcellulose) (HPC) 96 % of control

CCCC(CC#N)(CCC)CCC
inactive: dose: 37.5 mg/kg/injection, schedule: Q01DX Z (ip), vehicle: carboxymethylcellulose (CMC) 97 % of control | dose: 75.0 mg/kg/injection, schedule: Q01DX Z (ip), vehicle: carboxymethylcellulose (CMC) 101 % of control | dose: 100.0 mg/kg/injection, schedule: Q01DX Z (ip), vehicle: carboxymethylcellulose (CMC) 95 % of control | dose: 200.0 mg/kg/injection, schedule: Q01DX Z (ip), vehicle: carboxymethylcellulose (CMC) 100 % of control

O=C(O)CC(C(=O)O)C1C=CCC1 (stereo unspecified)
inactive: [9] 97 % of control | [10] 115 % of control | dose: 400.0 mg/kg/injection, schedule: Q01DX009 (ip), vehicle: saline 101 % of control

C(=N\C(/N=C/c1ccco1)c1ccco1)/c1ccco1
inactive: [11] 94 % of control | [12] 96 % of control | [13] 105 % of control | [14] 98 % of control | [15] 97 % of control | [16] 100 % of control

COc1ccc(Cl)cc1NC(=O)OC/C=C/c1ccccc1
inactive: dose: 100.0 mg/kg/injection, schedule: Q01DX009 (ip), vehicle: gum acacia 96 % of control | dose: 200.0 mg/kg/injection, schedule: Q01DX009 (ip), vehicle: gum acacia 96 % of control | dose: 400.0 mg/kg/injection, schedule: Q01DX009 (ip), vehicle: gum acacia 87 % of control

COc1cc(-c2ccc(NC(=O)Nc3ccc(C4=NCCN4)cc3)c(OC)c2)ccc1NC(=O)Nc1ccc(C2=NCCN2)cc1
inactive: dose: 15.0 mg/kg/injection, schedule: Q01DX Z (ip), vehicle: carboxymethylcellulose (CMC) 104 % of control | dose: 31.0 mg/kg/injection, schedule: Q01DX Z (ip), vehicle: carboxymethylcellulose (CMC) 98 % of control | dose: 62.5 mg/kg/injection, schedule: Q01DX Z (ip), vehicle: carboxymethylcellulose (CMC) 117 % of control | dose: 125.0 mg/kg/injection, schedule: Q01DX Z (ip), vehicle: carboxymethylcellulose (CMC) 103 % of control | dose: 250.0 mg/kg/injection, schedule: Q01DX Z (ip), vehicle: water 117 % of control | dose: 500.0 mg/kg/injection, schedule: Q01DX Z (ip), vehicle: water 87 % of control

c1ccc(Cc2ccncc2)cc1
inactive: [5] 101 % of control | [8] 106 % of control

O=C(Oc1ccc([N+](=O)[O-])cc1)c1ccc(C[n+]2ccccc2)cc1
inactive: dose: 50.0 mg/kg/injection, schedule: Q01DX009 (ip), vehicle: saline 97 % of control | [9] 97 % of control and 104 % of control | [17] 97 % of control | [10] 100 % of control and 106 % of control | [18] 90 % of control

Cc1cc(C)c(NC(=O)Nc2ccc(Cl)cc2)c(C)c1
inactive: [11] 92 % of control | [12] 100 % of control | [13] 92 % of control | [14] 97 % of control | [15] 96 % of control | [16] 97 % of control

CCOC(=O)C1(CCCBr)CCCCC1=O (stereo unspecified)
inactive: [19] 107 % of control | [20] 102 % of control | [21] 104 % of control

CC(=O)Nc1cccc(OC(=O)Nc2ccccc2F)c1
inactive: [11] 91 % of control | [13] 101 % of control | [15] 112 % of control

CN1CCCCC1CCC1c2ccccc2CCc2ccccc21 (stereo unspecified)
inactive: dose: 1.56 mg/kg/injection, schedule: Q01DX009 (ip), vehicle: saline 104 % of control | dose: 3.12 mg/kg/injection, schedule: Q01DX009 (ip), vehicle: saline 104 % of control | dose: 6.25 mg/kg/injection, schedule: Q01DX009 (ip), vehicle: saline 98 % of control and 99 % of control | dose: 12.5 mg/kg/injection, schedule: Q01DX009 (ip), vehicle: saline 94 % of control and 103 % of control | dose: 25.0 mg/kg/injection, schedule: Q01DX009 (ip), vehicle: saline 107 % of control and 116 % of control

CN1CCCC1c1cccnc1 (stereo unspecified)
inactive: dose: 0.5 mg/kg/injection, schedule: Q01DX009 (ip), vehicle: saline 97 % of control | dose: 0.5 mg/kg/injection, schedule: Q01DX Z (ip), vehicle: saline 97 % of control | dose: 1.0 mg/kg/injection, schedule: Q01DX009 (ip), vehicle: saline 95 % of control and 87 % of control | dose: 1.0 mg/kg/injection, schedule: Q01DX Z (ip), vehicle: saline 94 % of control | dose: 2.0 mg/kg/injection, schedule: Q01DX Z (ip), vehicle: saline 95 % of control

O=C1C=Cc2c(ccc3c4c(ccc23)=CC(=O)C=C4)=C1
inactive: [19] 88 % of control | [20] 90 % of control | [21] 90 % of control

O=NN(CCN(N=O)c1ccccc1)c1ccccc1
inactive: dose: 100.0 mg/kg/injection, schedule: Q01DX001 (ip), vehicle: other 97 % of control | dose: 100.0 mg/kg/injection, schedule: Q04DX003 (ip), vehicle: other 104 % of control | dose: 200.0 mg/kg/injection, schedule: Q01DX001 (ip), vehicle: other 97 % of control | dose: 200.0 mg/kg/injection, schedule: Q04DX003 (ip), vehicle: other 101 % of control | dose: 400.0 mg/kg/injection, schedule: Q01DX001 (ip), vehicle: other 92 % of control | dose: 400.0 mg/kg/injection, schedule: Q04DX003 (ip), vehicle: other 97 % of control

C=C(C)/C=C(\C)CC(=C)C
inactive: [17] 97 % of control | [18] 105 % of control | dose: 400.0 mg/kg/injection, schedule: Q04DX003 (ip), vehicle: saline 96 % of control

Nc1nc(N)c(N=O)c(=O)[nH]1
inactive: [1] 105 % of control | [11] 99 % of control | [2] 95 % of control | [13] 100 % of control | [3] 94 % of control | [15] 97 % of control
